Reference: patent US9073858B2, “Methods of targeted drug development” (priority 2010, dated 2015)
Read-outs that look alike come from different tables or passages of the source.

Tests used:
MDBK line = test: MTT Cell Proliferation Assay, MDBK line; type: cell-based, bovine; settings: Bos taurus, MDBK
From the text: (§1) The following example describes the MTT Cell Proliferation Assay.
(§2) The MTT Cell Proliferation Assay is a colorimetric assay system that measures the reduction of the tetrazolium salt MTT (3-(4,5-dimethylthiazol-2-yl)-2,5-diphenyltetrazolium bromide) into insoluble formazan crystals, produced by the mitochondria of viable cells. […] The color can then be quantified by spectrophotometric means. Among the applications for the method are drug sensitivity, cytotoxicity, response to growth factors, and cell activation. The reduction of tetrazolium salts is now recognized as a safe, accurate alternative to radiometric testing.
(§3) Two replicates on each cell plate and 2 duplicate plates gave 4 individual replicates of each concentration, in each cell line. Concentrations were diluted in 100% DMSO from 25 mM stocks.
(§4) Twelve 96 well plates of each cell line were plated. Plating was done by dislodging cells as in passage protocol, counting on a hemocytometer, re-suspending in standard growth media, and plating using a multichannel pippetor.
(§5) 16 μl of 25 mM stock+34 μl DMSO=8 mM starting concentrations, and serial diluted as with test compounds in same plate. […] Two replicates of each concentrations was run on each cell plate. All compound addition and cell treatments were done using aseptic technique under a laminar flow aseptic hood.
(§6) Control: 0.5% DMSO in treatment media was used as the control.
(§7) MTT dye (Thiazolyl Blue Tetrazolium Bromide, Sigma cat # M5655) stock was prepared in bulk and stored at 4° C. for use: 5 mgs/ml sterile PDS, shielded from light. 4 ul of this stock per 100 uls treatment media per well was used.
(§8) Plates were incubated overnight prior to treatment, with treatment day=Day 0. Compound treatments were prepared prior to washing cells to minimize time cells were dry at room temperature after final aspiration. Compounds were diluted in 100% DMSO in 96 well polypropylene plates:40 μl 25 mM stock+10 μl DMSO=20 mM; 20 μl of 20 mM+30 μl DMSO=8 mM; 20 μl of 8 mM+30 μl DMSO=3.2 mM; 20 μl of 3.2 mM+30 μl DMSO=1.3 mM; 20 μl of 1.3 mM+30 μl DMSO=0.51 mM.
(§9) 5.0 μl/ml were added to treatment media, in sterile, 2.2 ml deep well plates=0.5% dmso final. Ten μl of each dmso concentration was added to 2.0 ml of treatment media and then mixed using a 1200 μl multichannel pipettor. Cell plates were treated from the deep well plates. Treatment media was standard growth media containing 0.5% FBS and standard additions. This reduced FBS concentration allowed for a slower growth rate in cells.
(§10) Media was aspirated from cell plates, and washed with 200 μl/well sterile PBS. Aspirated PBS wash, and cell plates were treated with 200 μl of compound/treatment media per well, and incubated at 37° C., 5% CO2 for 3 days.
(§11) Prior to harvesting, visual observations were made under an inverted microscope. Plates were harvested by: aspirating the growth media; adding back MTT dye/100 μl treatment media; and incubating plates at 37° C. for 1 hour. MTT dye was aspirated. 100 μl/well dmso was added, and then shaken on a Bellco plate shaker for 5 minutes, at 4.5 setting.
(§12) Plates were read in a Tecan Sunrize UV plate reader, at 560 nm. Settings: Read mode, Outside Normal 2 sec; Shake settle time 3 sec. Data is reported as % inhibition, calculated for individual plates using control values from that plate.

[1] = test system: epithelial carcinoma A431 cell line; test: MTT Cell Proliferation Assay, A431 cell line; type: cell-based; settings: for MTT (10 Point follow-up) ratio / MTT-72 h A431/MDBK (ratio): value in brackets; for MTT (10 Point follow-up) ratio: numerically MDBK over A431; for IC50: Homo sapiens; for MTT-72 h A431/MDBK (ratio): numerically MDBK value over A431 value
From the text: as §1, §2, §3, §4, §5, §6, §7, §8, §9, §10, §11, §12

EGFR = biological target: T1, EGFR (Homo sapiens, UniProt P00533); test: EGFR in-cell Western (ICW) screening protocol; type: cell-based; set-up: unit not given here; settings: for ICW Screen: initial screen
T1 construct: endogenous in cells; host or cells: A431 cells (ATCC CRL-1555)
Experimental: The following example describes general EGFR in-cell Western (ICW) screening protocol.
Two cell plates were prepared for each compound plate.
Serum Starvation: The cells were serum starved prior to compound addition. […] The cell plates were incubated at 37° C./5% CO2 for 2 hours.
Prepared compound plates were stored at RT prior to use and at 4° C. long term.
Compound Dilution Plate Preparation: 250 μl of DMEM supplemented with 1 mg/ml BSA (Sigma A3059-10G) was added to the appropriate wells of a 96 well plate to prepare the compound dilution plates. Using a multichannel pipettor, 1.25 μl of compound from the compound plate was transferred into the compound dilution plate.
Compound Addition: The starve media was removed from the cell plates by aspiration. Using a multichannel pipettor, the compound dilution plates were mixed by pipetting up and down three times. 50 μl of mixed, diluted compound was added to each of two rows/columns on each of two cell plates. The cell plates with compound were incubated at 37° C./5% CO2 for 4 hours.
50 μl of 20 or 0 ng/ml EGF was added to the appropriate wells without the removal of compound. The compound and EGF were mixed by pipetting up and down three times.
The plates were incubated at RT for 20 min without shaking. The Fixation Solution was removed by aspiration and the plates washed four times with 200 μl each of Triton Wash Solution (1×PBS, Sigma P3813-10PK, and 0.1% Triton X-100, T8787-50ML) for 5 min with gentle shaking.
The block was removed by aspiration and 50 μl of diluted primary Ab mix was added. The plates were incubated at 4° C. overnight with gentle shaking. The plates were washed five times with 200 μl of PBST (1×PBS, Sigma P3813-10PK, and 0.1% Tween-20, Sigma P9416-50ML) for 5 min each with shaking. 50 μl of diluted secondary Ab mix was added and the plates incubated at RT for 1 h with shaking. The plates were washed 5× with 200 μl of PBST for 5 min each with shaking. One final wash with 200 μl of PBS (Sigma P3813-10PK) for 5 min with shaking was performed prior to scanning.
In some screening assays, the dilution of the secondary Ab conjugates was 1/800 rather than 1/1200.
Plate Scanning: The plates were scanned on an Odyssey Infrared Imaging System from LI-COR Biosciences. The focus offset was set at 3.5 mm and the scanning intensity set at 3 for the 700 channel and 7 for the 800 channel.
Data Analysis: The % of Maximum and % Inhibition values were calculated as follows. 700 Channel=signal for total EGFR (used to control for variation in cell number). 800 Channel=signal for phosphorylated EGFR. 800−EGF=basal level EGFR phosporylation+non-specific signal (no compound). 800+EGF=800−EGF+EGF dependent EGFR receptor phosphorylation (no compound). 700/800com=700 or 800 channel signals with compound. % Maximum={[(800com/700com)−(800−EGF/700−EGF)]/[(800+EGF/700+EGF)−(800−EGF/700−EGF)]}×100%. % Inhibition=100%−(% Maximum).

[2] = 10 point follow-up, second value of pair, read-out: MTT (10 Point follow-up) MDBK
[3] = A-431, 10 point follow-up, first value of pair, read-out: MTT (10 Point follow-up) A431
[4] = A-431, 72 h, 72 h, first value of A431/MDBK pair, read-out: MTT-72 h A431
[5] = 72 h, second value of A431/MDBK pair, read-out: MTT-72 h MDBK

T1 sequence (P00533 25-1210): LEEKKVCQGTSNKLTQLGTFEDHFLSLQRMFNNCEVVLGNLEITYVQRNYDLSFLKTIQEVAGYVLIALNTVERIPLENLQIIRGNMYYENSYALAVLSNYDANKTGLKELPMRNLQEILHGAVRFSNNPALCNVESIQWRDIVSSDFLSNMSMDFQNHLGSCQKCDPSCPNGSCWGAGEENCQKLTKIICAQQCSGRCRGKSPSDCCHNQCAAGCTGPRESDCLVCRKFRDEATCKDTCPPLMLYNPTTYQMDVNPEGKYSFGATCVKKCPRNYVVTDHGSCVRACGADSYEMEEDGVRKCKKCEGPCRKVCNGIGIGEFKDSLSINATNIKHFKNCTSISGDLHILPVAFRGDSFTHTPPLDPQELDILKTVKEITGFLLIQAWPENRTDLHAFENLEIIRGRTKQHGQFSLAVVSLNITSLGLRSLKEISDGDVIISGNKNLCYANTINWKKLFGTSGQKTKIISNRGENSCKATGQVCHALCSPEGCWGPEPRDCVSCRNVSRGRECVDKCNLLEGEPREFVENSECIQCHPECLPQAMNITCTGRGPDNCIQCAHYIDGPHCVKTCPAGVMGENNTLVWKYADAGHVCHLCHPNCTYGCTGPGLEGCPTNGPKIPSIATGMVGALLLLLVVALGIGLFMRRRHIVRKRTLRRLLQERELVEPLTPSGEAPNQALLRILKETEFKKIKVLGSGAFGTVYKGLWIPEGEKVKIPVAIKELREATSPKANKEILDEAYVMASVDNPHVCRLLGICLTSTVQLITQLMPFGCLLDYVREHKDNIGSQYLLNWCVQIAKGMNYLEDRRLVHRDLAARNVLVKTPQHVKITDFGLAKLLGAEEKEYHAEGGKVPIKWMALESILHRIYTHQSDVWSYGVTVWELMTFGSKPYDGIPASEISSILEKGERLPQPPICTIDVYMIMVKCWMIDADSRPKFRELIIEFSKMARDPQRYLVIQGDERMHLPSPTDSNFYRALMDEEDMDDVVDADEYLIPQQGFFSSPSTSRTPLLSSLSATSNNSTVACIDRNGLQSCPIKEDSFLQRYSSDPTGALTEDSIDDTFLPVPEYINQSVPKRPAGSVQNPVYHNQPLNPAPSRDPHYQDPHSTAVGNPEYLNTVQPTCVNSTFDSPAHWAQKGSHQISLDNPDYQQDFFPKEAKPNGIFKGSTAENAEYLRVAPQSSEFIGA

In the case of `C=CCOc1ccc(C(Nc2ccccn2)c2ccc3cccnc3c2O)cc1` (stereo not shown) [compound 10052], the IC50 (MDBK line; [2]) is reported as 9.25 µM, the “MTT (10 Point follow-up) ratio” value [1] is reported as 0.67 and the IC50 [1, 3] is reported as 13.8 µM. The IC50 [1, 4] was 2.35 µM, the “ICW Screen” value (EGFR) was 43.1 and the “ICW Re-Test” value (EGFR) was 20.95.
For `COc1ccc(C(Nc2cc(C)ccn2)c2ccc3cccnc3c2O)c(OC)c1OC` (stereo not shown) [compound 10031], the IC50 (MDBK line; [5]) was 6.09 µM, the “MTT-72 h A431/MDBK (ratio)” value ([1]; 72 h) was 0.65 and the IC50 [1, 4] was 9.39 µM. The “ICW Screen” value (EGFR) was 34.62.
For `Cc1cccc(NC(c2ccccc2F)c2ccc3cccnc3c2O)n1` (stereo not shown) [compound 10015], the IC50 (MDBK line; [2]) was 3.28 µM, the “MTT (10 Point follow-up) ratio” value [1] was 0.99 and the IC50 [1, 3] was 3.31 µM. For the same compound, the “ICW Screen” value (EGFR) was 25.99.
`CCOc1ccccc1C(Nc1ccccn1)c1ccc2ccc(C)nc2c1O` (stereo not shown) [compound 10049] was tested, and the IC50 (MDBK line; [5]) was 11.5 µM, the “MTT-72 h A431/MDBK (ratio)” value ([1]; 72 h) was 0.94 and the IC50 [1, 4] was 12.2 µM. For the same compound, the “ICW Screen” value (EGFR) was 35.57.
For `CC(=O)Nc1ccc(NC(c2ccccn2)c2ccc3cccnc3c2O)cc1` (stereo not shown) [compound 11017], the IC50 (MDBK line; [5]) was 9.66 µM, the “MTT-72 h A431/MDBK (ratio)” value ([1]; 72 h) was 0.83 and the IC50 [1, 4] was 11.6 µM. The “ICW Screen” value (EGFR) was 25.07.
`Cc1ccnc(NC(c2ccncc2)c2ccc3cccnc3c2O)c1` (stereo not shown) [compound 10968] was tested, and the IC50 (MDBK line; [5]) was 7.84 µM, the “MTT-72 h A431/MDBK (ratio)” value ([1]; 72 h) was 0.71 and the IC50 [1, 4] was 11.1 µM. The “ICW Screen” value (EGFR) was 27.
For `CCCC(=O)NC(c1ccc(OC)c(OC)c1)c1cc(Cl)c2cccnc2c1O` (stereo not shown) [compound 10949], the IC50 (MDBK line; [5]) was 5.79 µM, the “MTT-72 h A431/MDBK (ratio)” value ([1]; 72 h) was 1.03 and the IC50 [1, 4] was 5.63 µM. The “ICW Screen” value (EGFR) was 26.99.
With `Oc1c(C(Nc2cccc(Cl)c2)c2ccncc2)ccc2cccnc12` (stereo not shown) [compound 11042] the IC50 (MDBK line; [5]) was 3.72 µM, the “MTT-72 h A431/MDBK (ratio)” value ([1]; 72 h) was 1.06 and the IC50 [1, 4] was 3.93 µM. For the same compound, the “ICW Screen” value (EGFR) was 53.72 and the “ICW Re-Test” value (EGFR) was 71.32.
For `C=CCOc1cccc(C(Nc2ccccn2)c2ccc3cccnc3c2O)c1` (stereo not shown) [compound 10050], the IC50 (MDBK line; [5]) was 5.35 µM, the “MTT-72 h A431/MDBK (ratio)” value ([1]; 72 h) was 0.97 and the IC50 [1, 4] was 5.39 µM. For the same compound, the “ICW Screen” value (EGFR) was 32.11.
With `Oc1c(C(c2ccccn2)N2CCN(Cc3ccccc3)CC2)ccc2cccnc12` (stereo not shown) [compound 10534] the IC50 (MDBK line; [5]) was 9.18 µM, the “MTT-72 h A431/MDBK (ratio)” value ([1]; 72 h) was 0.85 and the IC50 [1, 4] was 10.8 µM. For the same compound, the “ICW Screen” value (EGFR) was 28.31.
